Measurements: patent US12533350B2, “Use of melanocortin-1 receptor agonist” (TANABE PHARMA CORPORATION, priority 2022, dated 2026)

Columns and labels:
[1] = system: lung tissue gene expression in BLM-induced SSc model; conditions: 0.3 mg/kg
Protocol: Total RNA of mouse lung tissue samples of PBSY_vehicle (control group without disease), BLM_vehicle (control group with disease), and BLM_Compound A (0.3 mg/kg) obtained from the BLM-induced SSc model (prophylactic evaluation) was used for analysis. The purity, concentration, and quality of the RNA samples were confirmed with NanoDrop 2000 (Thermo Fisher Scientific) and Agilent 2100 bioanalyser (Agilent Technologies). The RNA was then Cy3-labeled using a Low Input Quick Amp Labeling Kit, one-color (Agilent Technologies). Labeled cRNA samples were fragmented, and then hybridized with the Agilent SurePrint G3 Mouse GE v2 8×60 K Microarray (Agilent Technologies) using a Gene Expression Hybridization Kit (Agilent Technologies). After hybridization, the microarray was washed with the Gene Expression Wash Buffers Pack (Agilent Technologies) and imaged with a scanner to detect the signals. Signal intensities were evaluated with Agilent Feature Extraction software 12.0.
Bioinformatics analysis in this study was performed with software, including GeneSpring GX 14.9.1, IPA 2019 autumn, and Microsoft Excel 2010. Genes that fluctuated ≥2 fold in BLM_vehicle group in comparison with those of the PBS_vehicle group and that satisfied a p-value <0.05 of the moderated t-test were defined as “differentially expressed genes (DEGs) in the disease model”. Among DEGs, the genes in the Compound A treatment group that fluctuated ≥1.5 fold in the opposite direction and met a p-value <0.05 of the moderated t-test in comparison with those of the BLM_vehicle group were defined as “DEGs by Compound A treatment”. DEGs were inputted into IPA and two types of calculations were performed: “Canonical pathways” and “Diseases or functions”. Here, “Canonical pathways” is described as “pathways” and “Diseases or functions” is described as “category”. The former contains a list for a series of gene interactions and the latter is a list related to diseases and biological functions. These datasets are registered in the IPA software. Initially, the Fisher's exact test was used to calculate the probability of overlap between two sets of genes. Thereafter, downstream effect analysis (DSEA) was used to calculate the activation z-score. DSEA is a technique for predicting the direction of change in expression patterns (either activation or inhibition) based on the expected causal effects between genes and functions. Based on the results of the DSEA analysis, information about the cell type (macrophages, neutrophils, mononuclear leukocytes, T-lymphocytes, B-lymphocytes, smooth muscle cells, endothelial cells, epithelial cells, and fibroblasts) that may be involved in the pathogenesis of SSc was extracted. Subsequently, information regarding biological functions and molecular signaling pathways, such as inflammation/immune abnormality, vascular dysfunction, and fibrosis, involved in the pathogenesis of SSc are extracted.
DNA microarray analysis was carried out using lung samples from a BLM-induced SSc model (prevention model) to which 0.3 mg/kg of Compound A was administered. Bioinformatics analysis was carried out using IPA software, and two datasets were used to perform two types of calculations (“Canonical pathways” and “Diseases or functions”). Downstream effect analysis was used to calculate the activation z-score.

[2] = system: dermal fibroblasts from SSc patients; assay: TGF-β-induced human fibroblast activation, SSc patients; assay type: cell-based; conditions: concentration of 1000 nmol/L; TGF-β 10 ng/mL, 24 hours
Excerpt: Full-thickness skin biopsies were obtained from clinically involved skin of patients affected by dcSSc, who were recruited from the Systemic sclerosis clinic within the Leeds Institute of Rheumatic and Musculoskeletal Medicine (UK). Control skin samples were from healthy donors. All patients with dcSSc and healthy donors provided written informed consent through the stratification for risk of progression in systemic sclerosis (STRIKE SSC), which had been approved by the North-East Research Ethic committee. Patients with SSc fulfilled the 2013 ACR/EULAR classification criteria for SSc and were classified as having dcSSc according to the LeRoy and Medsger criteria.
Dermal fibroblasts were isolated from the skin biopsy samples of healthy donors and SSc patients. […]
Total RNA was extracted using the Zymo quick RNA mini prep kit according to manufacturer's instructions (Zymo Research Corporation). […] Quantitative RT-PCR was performed in triplicates using SYBR Green RT-PCR Mastermix Kit (Thermo Fisher Scientific) and the ABI PRISM 7500 Fast Real Time PCR System (Applied Biosystems). […]
FIGS. 5(A)-5(B) show the effect of Compound A on human fibroblast activation. […] Each bar represents the mean±SEM of the measured values from three wells. […]

COC[C@H]1CN(C(=O)[C@]2(F)CN(C3CCCC3)C[C@H]2c2ccc(OC)cc2)C[C@@H]1c1ccc(C(F)(F)F)cc1N1CCC(C(=O)O)CC1 [Compound A, 1-{2-[(3S,4R)-1-{[(3R,4R)-1-cyclopentyl-3-fluoro-4-(4-methoxyphenyl)pyrrolidin-3-yl]carbonyl}-4-(methoxymethyl)pyrrolidin-3-yl]-5-(trifluoromethyl)phenyl}piperidine-4-carboxylic acid]
gene expression fluctuation induced by BLM in IL-6 pathway genes (upstream and downstream) [1]: reversed
IL-6 signaling pathway ([1]; IPA canonical pathways): affected
PPAR signaling pathway ([1]; IPA canonical pathways): affected
TREM1 signaling pathway ([1]; IPA canonical pathways): affected
oncostatin M signaling pathway ([1]; IPA canonical pathways): affected
category activation of antigen-presenting cells (activated by BLM) ([1]; IPA downstream effect analysis): suppressed
category angiogenesis (activated by BLM) ([1]; IPA downstream effect analysis): suppressed
category atherosclerosis (activated by BLM) ([1]; IPA downstream effect analysis): suppressed
category inflammatory response (activated by BLM) ([1]; IPA downstream effect analysis): suppressed
category vasculogenesis (activated by BLM) ([1]; IPA downstream effect analysis): suppressed
category vaso-occlusion (activated by BLM) ([1]; IPA downstream effect analysis): suppressed
number of DEGs by Compound A treatment (≥1.5 fold in opposite direction, p<0.05 vs BLM_vehicle) ([1]; among 3337 DEGs in the disease model): 1477
T-lymphocyte-related categories (IPA activation z-score) ([1]; not changed by BLM): suppressed
endothelial cell-related categories (IPA activation z-score) ([1]; not changed by BLM): suppressed
expression of the IL-6 gene among component genes of the IL-6 signaling pathway ([1]; remarkably upregulated by BLM): downregulated the most
TGF-β-induced increase in αSMA mRNA expression [2]: suppressed
